# Like-named read-outs stand apart in the source and are kept apart here.
# Assays:
# [1] = biological target: T1, BIN1-GFP (Arabidopsis thaliana, UniProt O22476); format: binding; parameters: expressed in transfected cells; host or cells: transgenic Arabidopsis plants (microsomal fractions, or anti-GFP immunoprecipitate from extracts)
# [2] = test system: plants; conditions: cited from earlier work
# [3] = biological target: T1, BIN1-GFP; conditions: membrane fractions of BIN1-GFP transgenic plants
# [4] = test system: BIN1; assay: BL induced BIN1 phosphorylation in seedlings (mobility shift on SDS-PAGE, immunoblot); format: in vivo, Arabidopsis; conditions: BIN1-6 and BIN1117 mutant seedlings, 1 μM BL for 1 hour
# Method: (§3) Proteins were analyzed by 4% SDS-PAGE, blotted, and probed with anti-BIN1N antibody. b.
# (§4) Samples were analyzed by SDS-PAGE using 4% gels and western blotting as described above. […] For phosphatase treatment, SDS was removed from protein samples using the SDS-OUT kit (Pierce), and the proteins were then treated with alkaline phosphatase (Boehringer Mannheim) and protein phosphatase I (PPI, New England Biolab) under conditions recommended by the manufacturer and as described.
# [5] = biological target: T2, BIN1-116, Q583-stop (70-aa island) (Arabidopsis thaliana, UniProt O22476); format: binding; conditions: BIN1-116 mutant, compared with wild type
# T2 construct: microsomal fractions of wild type (WT), det2, BIN1-6, BIN1-116, BIN1-104, and BIN1-102 mutant plants; from tissue; host or cells: microsomal fractions of BIN1-116 mutant Arabidopsis plants
# T2 sequence (O22476 24-582 limits assumed): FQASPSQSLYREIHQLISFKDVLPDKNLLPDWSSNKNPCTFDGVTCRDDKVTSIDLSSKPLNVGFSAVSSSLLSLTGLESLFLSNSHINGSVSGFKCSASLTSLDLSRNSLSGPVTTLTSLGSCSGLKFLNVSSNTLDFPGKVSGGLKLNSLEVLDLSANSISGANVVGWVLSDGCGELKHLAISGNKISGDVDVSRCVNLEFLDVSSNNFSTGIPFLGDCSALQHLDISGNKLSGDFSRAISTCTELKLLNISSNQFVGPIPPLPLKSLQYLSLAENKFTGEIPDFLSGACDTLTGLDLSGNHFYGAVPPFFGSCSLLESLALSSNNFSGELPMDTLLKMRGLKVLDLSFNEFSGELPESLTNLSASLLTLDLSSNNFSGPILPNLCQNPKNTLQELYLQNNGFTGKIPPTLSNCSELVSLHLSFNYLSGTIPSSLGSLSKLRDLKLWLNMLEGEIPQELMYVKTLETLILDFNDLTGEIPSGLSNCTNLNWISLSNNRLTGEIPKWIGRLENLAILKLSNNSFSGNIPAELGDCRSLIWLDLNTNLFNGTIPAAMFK
# From the text: (§1) Mutations in large numbers of BIN1 alleles implicate the functional importance of the cytoplasmic kinase domain and the 70-aa island of BIN1's extracellular domain.
# (§2) Tetrahedron Lett. 39, 7525-7528 (1998). […] Science 288, 2360-3 (2000).
# [6] = biological target: T3, BIN1-6, G644-D (70-aa island) (Arabidopsis thaliana, UniProt O22476, G644D); format: binding; conditions: BIN1-6 mutant, compared with wild type
# T3 construct: microsomal fractions of wild type (WT), det2, BIN1-6, BIN1-116, BIN1-104, and BIN1-102 mutant plants; from tissue; host or cells: microsomal fractions of BIN1-6 mutant Arabidopsis plants
# T3 sequence (O22476 24-1196 G644D): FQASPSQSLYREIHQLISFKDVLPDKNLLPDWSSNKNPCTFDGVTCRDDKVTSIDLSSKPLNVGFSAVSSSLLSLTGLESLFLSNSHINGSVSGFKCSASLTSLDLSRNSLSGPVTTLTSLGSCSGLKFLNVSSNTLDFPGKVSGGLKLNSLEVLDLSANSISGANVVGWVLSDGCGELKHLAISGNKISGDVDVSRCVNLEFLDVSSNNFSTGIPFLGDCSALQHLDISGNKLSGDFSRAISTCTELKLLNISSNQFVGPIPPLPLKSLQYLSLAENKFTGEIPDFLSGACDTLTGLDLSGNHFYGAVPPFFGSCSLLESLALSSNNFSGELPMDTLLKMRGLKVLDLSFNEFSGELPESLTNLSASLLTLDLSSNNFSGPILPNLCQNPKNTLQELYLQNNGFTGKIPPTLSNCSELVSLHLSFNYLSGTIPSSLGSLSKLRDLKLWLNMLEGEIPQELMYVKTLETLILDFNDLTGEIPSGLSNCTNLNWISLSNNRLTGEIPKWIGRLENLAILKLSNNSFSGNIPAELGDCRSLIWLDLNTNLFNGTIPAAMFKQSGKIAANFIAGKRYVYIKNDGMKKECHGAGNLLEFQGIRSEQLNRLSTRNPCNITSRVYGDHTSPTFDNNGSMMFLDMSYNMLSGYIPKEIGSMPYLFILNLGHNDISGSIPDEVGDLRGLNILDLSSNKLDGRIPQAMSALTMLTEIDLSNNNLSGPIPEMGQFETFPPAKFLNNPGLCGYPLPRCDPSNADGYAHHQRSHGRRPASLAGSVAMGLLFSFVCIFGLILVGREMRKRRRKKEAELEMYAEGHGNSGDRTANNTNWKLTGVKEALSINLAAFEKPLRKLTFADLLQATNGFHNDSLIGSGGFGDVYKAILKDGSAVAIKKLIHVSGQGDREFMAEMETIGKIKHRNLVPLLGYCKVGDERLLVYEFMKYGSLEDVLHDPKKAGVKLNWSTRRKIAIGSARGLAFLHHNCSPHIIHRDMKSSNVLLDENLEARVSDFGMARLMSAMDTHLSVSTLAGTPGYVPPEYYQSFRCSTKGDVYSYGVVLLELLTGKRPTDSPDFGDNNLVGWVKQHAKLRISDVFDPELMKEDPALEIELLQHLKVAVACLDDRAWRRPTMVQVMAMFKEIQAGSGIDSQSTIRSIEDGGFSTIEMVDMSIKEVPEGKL
# From the text: as §1, §2
# [7] = biological target: T4, BIN1 (Arabidopsis thaliana, UniProt O22476); conditions: membrane fractions of wild-type plants
# T4 sequence (O22476 24-1196): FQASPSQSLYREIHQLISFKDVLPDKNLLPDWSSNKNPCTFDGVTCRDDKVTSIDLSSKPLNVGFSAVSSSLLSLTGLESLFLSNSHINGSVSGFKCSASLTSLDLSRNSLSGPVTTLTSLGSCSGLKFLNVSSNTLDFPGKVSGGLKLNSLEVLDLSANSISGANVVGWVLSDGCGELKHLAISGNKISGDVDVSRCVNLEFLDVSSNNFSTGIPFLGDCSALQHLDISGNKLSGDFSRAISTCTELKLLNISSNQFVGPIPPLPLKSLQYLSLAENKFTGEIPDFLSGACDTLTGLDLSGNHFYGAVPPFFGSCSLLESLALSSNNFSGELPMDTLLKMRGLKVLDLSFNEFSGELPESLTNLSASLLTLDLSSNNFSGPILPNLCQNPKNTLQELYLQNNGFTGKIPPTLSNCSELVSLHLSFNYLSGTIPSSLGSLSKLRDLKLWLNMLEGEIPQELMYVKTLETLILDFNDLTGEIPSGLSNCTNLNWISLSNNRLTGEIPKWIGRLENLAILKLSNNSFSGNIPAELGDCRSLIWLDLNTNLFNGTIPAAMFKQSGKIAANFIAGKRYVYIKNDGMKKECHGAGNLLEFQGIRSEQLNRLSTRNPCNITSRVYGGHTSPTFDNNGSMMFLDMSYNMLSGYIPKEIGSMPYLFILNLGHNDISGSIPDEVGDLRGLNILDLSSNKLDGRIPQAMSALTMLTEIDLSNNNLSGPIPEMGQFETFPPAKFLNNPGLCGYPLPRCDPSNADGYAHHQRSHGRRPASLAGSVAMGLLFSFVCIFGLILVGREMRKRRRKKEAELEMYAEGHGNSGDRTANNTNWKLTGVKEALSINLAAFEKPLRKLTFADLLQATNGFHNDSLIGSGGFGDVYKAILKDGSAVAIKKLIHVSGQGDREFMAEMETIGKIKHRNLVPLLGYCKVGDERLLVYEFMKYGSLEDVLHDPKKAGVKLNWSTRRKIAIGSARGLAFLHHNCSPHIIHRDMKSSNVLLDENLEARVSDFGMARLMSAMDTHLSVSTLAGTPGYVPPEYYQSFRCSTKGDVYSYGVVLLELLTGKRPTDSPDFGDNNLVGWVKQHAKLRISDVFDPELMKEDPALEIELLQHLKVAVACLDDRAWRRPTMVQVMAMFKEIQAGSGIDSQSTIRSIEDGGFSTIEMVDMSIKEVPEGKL
# [8] = biological target: T4, BIN1; assay: BL induced BIN1 phosphorylation in seedlings (mobility shift on SDS-PAGE, immunoblot); format: in vivo; parameters: from tissue; host or cells: wild-type Arabidopsis seedlings (microsomal fractions in A2; whole seedlings in A10); conditions: det2 BL biosynthetic mutant seedlings, 1 μM BL for 1 hour
# Method: as §3, §4
# [9] = biological target: T4, BIN1; assay: Binding kinetic studies of specific BL binding; parameters: from tissue; host or cells: wild-type Arabidopsis seedlings (microsomal fractions in A2; whole seedlings in A10)
# From the text: as §2
# T1 sequence (O22476 with tags, fused parts or gaps): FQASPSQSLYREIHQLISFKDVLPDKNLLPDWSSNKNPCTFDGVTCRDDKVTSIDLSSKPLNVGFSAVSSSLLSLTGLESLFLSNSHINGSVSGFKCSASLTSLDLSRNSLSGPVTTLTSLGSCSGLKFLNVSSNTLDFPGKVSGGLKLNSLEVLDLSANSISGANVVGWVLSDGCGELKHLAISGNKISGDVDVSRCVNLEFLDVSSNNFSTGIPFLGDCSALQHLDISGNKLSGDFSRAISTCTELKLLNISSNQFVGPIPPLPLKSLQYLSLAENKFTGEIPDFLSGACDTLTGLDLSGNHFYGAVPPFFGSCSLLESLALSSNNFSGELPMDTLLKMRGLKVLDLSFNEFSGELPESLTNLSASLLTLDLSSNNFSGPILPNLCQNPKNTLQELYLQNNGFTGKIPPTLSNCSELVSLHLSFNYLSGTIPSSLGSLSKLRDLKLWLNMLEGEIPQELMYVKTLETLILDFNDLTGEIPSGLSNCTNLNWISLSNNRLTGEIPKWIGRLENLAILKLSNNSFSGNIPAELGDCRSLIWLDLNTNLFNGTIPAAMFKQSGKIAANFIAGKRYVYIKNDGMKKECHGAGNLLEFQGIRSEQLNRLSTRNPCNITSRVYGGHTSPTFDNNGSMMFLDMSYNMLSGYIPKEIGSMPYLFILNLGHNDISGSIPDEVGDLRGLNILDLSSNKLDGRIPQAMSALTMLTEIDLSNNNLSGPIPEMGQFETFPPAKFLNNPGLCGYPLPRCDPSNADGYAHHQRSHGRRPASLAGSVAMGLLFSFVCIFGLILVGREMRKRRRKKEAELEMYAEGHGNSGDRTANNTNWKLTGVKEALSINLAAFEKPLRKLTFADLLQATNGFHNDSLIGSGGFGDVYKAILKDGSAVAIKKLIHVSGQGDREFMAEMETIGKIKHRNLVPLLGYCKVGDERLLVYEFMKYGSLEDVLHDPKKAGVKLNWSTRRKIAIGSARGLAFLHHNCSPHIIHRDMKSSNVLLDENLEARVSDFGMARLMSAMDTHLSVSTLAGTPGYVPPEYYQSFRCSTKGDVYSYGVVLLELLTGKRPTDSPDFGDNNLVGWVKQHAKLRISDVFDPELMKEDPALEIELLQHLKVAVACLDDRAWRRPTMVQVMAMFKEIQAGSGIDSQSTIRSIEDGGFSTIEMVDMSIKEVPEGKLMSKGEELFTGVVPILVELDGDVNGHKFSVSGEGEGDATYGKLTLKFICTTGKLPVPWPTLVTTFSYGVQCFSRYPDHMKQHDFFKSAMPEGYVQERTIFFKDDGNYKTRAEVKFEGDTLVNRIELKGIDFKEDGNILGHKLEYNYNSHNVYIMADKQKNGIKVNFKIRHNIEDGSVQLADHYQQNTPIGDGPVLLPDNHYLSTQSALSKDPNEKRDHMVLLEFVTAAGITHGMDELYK
compound,measurement,setting,value
C[C@H]([C@H](O)CCC(C)(C)O)[C@H]1CC[C@@]2(O)C3=CC(=O)[C@@H]4C[C@@H](O)[C@@H](O)C[C@]4(C)[C@H]3CC[C@]12C [ecdysone],IC50,[1],> 10000 nM
same,biological activity in plants,[2],lack of biological activity
"CC(C)[C@H](C)[C@@H](O)[C@H](O)[C@@H](C)[C@H]1CC[C@H]2[C@@H]3COC(=O)[C@H]4C[C@H](O)[C@H](O)C[C@]4(C)[C@H]3CC[C@]12C [BL, brassinolide]",Bmax (BL binding sites),[3],2.66 pmole mg^−1 membrane protein
same,BL-induced BIN1 phosphorylation,[4],not
same,BL binding activity,[5],greatly reduced
same,BL binding activity,[6],greatly reduced
same,Bmax (BL binding sites),[7],0.23 pmole mg^−1 membrane protein
same,BL-induced BIN1 phosphorylation,[8],also observed
same,time to 50% competition by unlabelled BL (reversibility of binding),[9],less than 1 min
same,time for specific BL binding to reach equilibrium,[9]; incubation at 25° C.,≤ 15 min
CC(C)[C@H](C)[C@@H](O)[C@H](O)[C@@H](C)[C@H]1CC[C@H]2[C@@H]3CC(=O)[C@H]4C[C@H](O)[C@H](O)C[C@]4(C)[C@H]3CC[C@]12C [castasterone],"relative binding affinity (RBA, ratio between IC50 of a competitor and that of BL)",[1]; membrane fraction of BIN1-GFP plants,4-5 times lower than BL
same,IC50,"[1]; read-out: 50% inhibition concentration, IC50, of [3H]-BL binding, membrane fraction of BIN1-GFP plants",340 nM
same,activity in bioassays relative to BL,[2]; bioassays,about 5 times less active than BL
"2,3,22,23-O-tetramethylBL [Me-BL]",biological activity in plants,[2],lack of biological activity

# From patent US6765085B2, “Receptor kinase, BIN1” (The Salk Institute for Biological Studies, priority 1997, dated 2004)
